The results in this text go back to ChEMBL document CHEMBL1147220, “Divinatorins A-C, new neoclerodane diterpenoids from the controlled sage Salvia divinorum” (2003).

SMILES strings stand for the structures. Values after ≈ are worked out from the molar mass of the structure shown. Active and inactive are the calls of the source. No cut-off for these calls is given here.

Assay [1] deals with Escherichia coli. Kind of assay: Antibacterial activity against Escherichia coli ATCC 25922 at 100 ug/mL by microdilution method. The class given is functional, organism-based. For orientation: Dilution methods test growth across graded concentrations, often in twofold steps.
Assay [2] concerns Staphylococcus aureus. In words: Antibacterial activity against Staphylococcus aureus ATCC 29213 at 100 ug/mL by microdilution method. In kind it is functional, organism-based.
Assay [3] concerns Candida albicans. Kind of assay: Antifungal activity against Candida albicans ATCC 90028 at 100 ug/mL by microdilution method. In kind it is functional, organism-based.
The subject of assay [4] is Escherichia coli. In words: Antibacterial activity against Escherichia coli ATCC 25922 at 100 ug/disk by disk diffusion method. The class given is functional, organism-based. A general note: In agar diffusion tests the substance spreads into inoculated agar from a disc or well.
Assay [5] relates to Staphylococcus aureus. In words: Antibacterial activity against Staphylococcus aureus ATCC 29213 at 100 ug/disk by disk diffusion method. The class given is functional, organism-based.
Assay [6] relates to Bacillus subtilis. Kind of assay: Antibacterial activity against Bacillus subtilis ATCC 6633 at 100 ug/disk by disk diffusion method. In kind it is functional.
In assay [7] the test system is Candida albicans. Kind of assay: Antifungal activity against Candida albicans ATCC 90028 at 100 ug/disk by disk diffusion method. In kind it is functional, organism-based.
Assay [8] has as its system Bacillus subtilis. In words: Antibacterial activity against Bacillus subtilis ATCC 6633 at 100 ug/mL by microdilution method. In kind it is functional, organism-based.
In assay [9] the test system is Staphylococcus aureus. In words: Antibacterial activity against Staphylococcus aureus ATCC 29213 by microdilution method. In kind it is functional.
For assay [10], the system named is Bacillus subtilis. In words: Antibacterial activity against Bacillus subtilis ATCC 6633 by microdilution method. The class given is functional.

Turning to `CC(=O)OC[C@@H]1CC[C@@]2(C)C(C(=O)O)=CCC[C@@H]2[C@@]1(C)CCc1ccoc1`, the result in the assay with Escherichia coli [1], with Staphylococcus aureus [2], with Candida albicans [3], with Escherichia coli [4], in the assay on Staphylococcus aureus [5] and in the assay with Bacillus subtilis [6] was inactive. For the same compound, the outcome in the assay with Candida albicans [7] and in the assay on Bacillus subtilis [8] was inactive.

`C[C@@H]1CC[C@@]2(C)C(C(=O)O)=CC[C@H](O)[C@@H]2[C@@]1(C)CCc1ccoc1`: the result in the assay on Escherichia coli [1], in the assay with Staphylococcus aureus [2], with Candida albicans [3], in the assay with Escherichia coli [4], with Staphylococcus aureus [5] and in the assay on Bacillus subtilis [6] was inactive. The outcome with Candida albicans [7] and in the assay with Bacillus subtilis [8] was inactive.

As a reminder, the MIC is the lowest concentration found to suppress growth. Consider `C[C@H]1CC[C@]2(C)C(C(=O)O)=CCC[C@H]2[C@]1(C)CCc1ccoc1`, for which, in the assay with Bacillus subtilis [6] (read-out: IZ), the zone of inhibition at 100 µg/disc worked out at 10 mm. The MIC against Staphylococcus aureus [9] came out at 25 µg/mL (≈ 79 µM); against Bacillus subtilis [10], 12.5 µg/mL (≈ 39.5 µM).

As for `C[C@@H]1CC[C@@]2(C)C(C(=O)O)=CCC[C@@H]2[C@@]1(C)CCc1ccoc1`, the MIC against Bacillus subtilis [10] worked out at 0.78 µg/mL (≈ 2.46 µM).

Take `COC(=O)C1=CC[C@H](O)[C@@H]2[C@@](C)(CCc3ccoc3)[C@H](CO)CC[C@@]12C`: the outcome with Escherichia coli [1], in the assay with Staphylococcus aureus [2], in the assay with Candida albicans [3], in the assay on Escherichia coli [4], with Staphylococcus aureus [5] and in the assay with Bacillus subtilis [6] was inactive. Further, the outcome with Candida albicans [7] and with Bacillus subtilis [8] was inactive.
